Here are results for two compounds from ChEMBL document CHEMBL1128060, “Deoxypseudophrynaminol: a novel antibacterial alkaloid” (1995).

Converted amounts (≈) assume the structure as drawn. The source made the active and inactive calls. The rule behind the calls is not given here.

The subject of test [1] is Enterococcus faecalis. In words: Minimum inhibitory concentration against growth of patient isolated vancomycin-resistant Enterococcus faecalis ATCC 51299 (VRE2); no inhibition. The test is classed as functional, organism-based.
Test [2] has as its system Staphylococcus aureus. In words: Minimum inhibitory concentration against growth of patient isolated methicillin-resistant Staphylococcus aureus (MRSA2); no inhibition. Format: functional, organism-based.
Another test relates to Escherichia coli. In words: Minimum inhibitory concentration against growth of […] Escherichia coli […]. Format: functional.
In test [3] the test system is Enterococcus faecalis. As to the kind of experiment: Minimum inhibitory concentration against growth of patient isolated vancomycin-resistant Enterococcus faecalis ATCC 51299 (VRE2). Format: functional.
Another test has as its system Enterococcus faecium. As to the kind of experiment: Minimum inhibitory concentration against growth of patient isolated vancomycin-resistant Enterococcus faecium (VRE1). The test is classed as functional.
Test [4] concerns Staphylococcus aureus. In words: Minimum inhibitory concentration against growth of patient isolated methicillin-resistant Staphylococcus aureus (MRSA1). Format: functional.
The subject of test [5] is Staphylococcus aureus. In words: Minimum inhibitory concentration against growth of patient isolated methicillin-resistant Staphylococcus aureus (MRSA2). The test is classed as functional.

For the compound `CC(C)=CCN1c2ccccc2C2(CC=C(C)C)CCN(C=O)C12` (configuration not stated), the MIC result in the test on Enterococcus faecalis [1] and in the test on Staphylococcus aureus [2] was “inactive” in each case.

`CC(C)=CCC12CCN(C)C1Nc1ccccc12` (configuration not stated): the MIC against Escherichia coli was 160 µg/mL (≈ 660 µM); against Enterococcus faecalis [3], 40 µg/mL (≈ 165 µM); in the test on Enterococcus faecium, 20 µg/mL (≈ 82.5 µM); in the test on Staphylococcus aureus [4] it was 40 µg/mL (≈ 165 µM); in the test with Staphylococcus aureus [5], 40 µg/mL (≈ 165 µM).
